We go through eight compounds from EP4553077A1 (Kinoteck Therapeutics Co., Ltd, priority 2022, dated 2024).

For series [1], the target named is Ba/F3-TEL-FGFR2 (Homo sapiens, UniProt P21802+P41212). Put plainly: Cell viability (proliferation inhibition) of Ba/F3 cells, CellTiter Glo. As to conditions: read-out: Ba/F3 cell FGFR2 (IC50 nM), 72 h.
In series [2] the target is Ba/F3-TEL-FGFR3 (Homo sapiens, UniProt P22607+P41212). The description is as above. The note with it: read-out: Ba/F3 cell FGFR3 (IC50 nM), 72 h.
Ba/F3-TEL-FGFR3, sequence (P22607 472-761 limits assumed, one chain of several): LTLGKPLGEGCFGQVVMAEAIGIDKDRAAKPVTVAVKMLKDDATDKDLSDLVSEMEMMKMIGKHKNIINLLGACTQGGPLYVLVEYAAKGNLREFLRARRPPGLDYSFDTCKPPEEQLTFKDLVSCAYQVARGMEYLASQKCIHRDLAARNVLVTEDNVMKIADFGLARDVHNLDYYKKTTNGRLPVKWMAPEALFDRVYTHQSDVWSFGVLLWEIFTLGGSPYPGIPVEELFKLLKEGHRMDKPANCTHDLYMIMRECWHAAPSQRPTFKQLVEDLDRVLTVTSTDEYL
Series [3] can be described thus: Pharmacokinetic test in rats. In kind it is in vivo, male SD rats. The note with it: rat, plasma, oral gavage administration, 10 mg/kg. As for the experimental part:
Rat pharmacokinetic experiments were performed using male SD rats, 180-220g, provided by Beijing Vital River Laboratory Animal Technology Co., Ltd. 3 rats that were fasted overnight were taken, and administered orally by gavage (10 mg/kg). Blood samples were collected before administration, as well as 5, 15, 30 min and 1, 2, 4, 6, 8, 24 h after administration; another 3 rats were taken and administered intravenously (1 mg/kg), blood samples were collected before administration, as well as 5, 15, 30 min and 1, 2, 4, 6, 8, 24 h after administration. Blood sample was centrifuged at 6800g, 2-8 °C for 6 min, and plasma was collected, and stored at -80 °C. Plasma of each time point was taken, 10 times the amount of 50% methanol acetonitrile solution containing internal standard was added, and mixed by vortex for 5 min, centrifuged at 18000 rpm at 4 °C for 10 min, and the supernatant was taken directly for LC-MS/MS analysis. The main pharmacokinetic parameters were analyzed using WinNonlin8.2 software for non compartmental model analysis. Table 3: pharmacokinetic test in rats results of test compounds

Series [4] concerns the target CYP3A4 (Homo sapiens, UniProt P08684). Put plainly: Cytochrome P450 inhibition in human liver microsomes. (Microsomes from liver hold many membrane-bound enzymes, among them those of drug oxidation.)
Method: (§3) Preparation of positive control inhibitor and compound working solution: 16 µL inhibitor stock solution or compound stock solution for each CYP subtype were taken and added to 24 µL DMSO. Then, they were diluted gradually three times with diluent to obtain different concentrations of test sample/positive control inhibitor working solution (7 concentrations each except for blank)
(§4) Preparation of liver microsomal working solution: 300 µL human liver microsomes (20.0 mg/mL) was taken and added to 29700 µL PBS and mixed well, and the concentration of the prepared human liver microsomal working solution was 0.200 mg/mL.
(§5) Preparation of 4 x NADPH working solution: A certain weight of NADPH tetrasodium salt was weighted and dissolved to a suitable volume of PBS to obtain NADPH working solution, with a concentration of 8.00 mM.
(§6) Preparation of test sample group working solution: The human liver microsomal working solution was divided into 96 well plates at 796 µL per well, and then 4 µL test sample working solution was added.
(§7) Preparation of positive control group working solution: The human liver microsomal working solution was divided into 96 well plates at 199 µL per well, and then 1 µL positive control inhibitor working solution was added.
(§8) Blank solvent working solution preparation: The human liver microsomal working solution was divided into 96 well plates at 199 µL per well, and then 1 µL DMSO was added.
(§9) (a) 30 µL test sample/positive control inhibitor working solution or 30 µL blank solvent working solution per well were transferred into a 96 well plate, and 15 µL substrate working solution of different enzyme subtypes transferred into each well, and mixed evenly. (b) The above incubation plates and 4 x NADPH working solution were preheated at 37 °C for 5 min. (c) 15 µL preheated 4 × NADPH working solution per well was transferred into the incubation plate, and the reaction initiated, and continued to be incubated at 37 °C. The incubation time is as follows:
(§10) (d) After the reaction time was reached, 180 µL termination solution was added to terminate the reaction. […] (f) After centrifugation, 80 µL supernatant was taken and added to 120 µL ultrapure water, and after it was mixed evenly, LC-MS/MS was used to analyze the metabolites of the probe substrate.
Series [5] deals with Ba/F3-TEL-FGFR1 (Homo sapiens, UniProt P11362+P41212). Nature of the series: Cell viability (proliferation inhibition) of Ba/F3 cells, CellTiter Glo. The note with it: read-out: Ba/F3 cell FGFR1 (IC50 nM), 72 h. (ATP-based viability assays read luminescence as a measure of living cells.)
Ba/F3-TEL-FGFR1, sequence (P11362 478-767 limits assumed, one chain of several): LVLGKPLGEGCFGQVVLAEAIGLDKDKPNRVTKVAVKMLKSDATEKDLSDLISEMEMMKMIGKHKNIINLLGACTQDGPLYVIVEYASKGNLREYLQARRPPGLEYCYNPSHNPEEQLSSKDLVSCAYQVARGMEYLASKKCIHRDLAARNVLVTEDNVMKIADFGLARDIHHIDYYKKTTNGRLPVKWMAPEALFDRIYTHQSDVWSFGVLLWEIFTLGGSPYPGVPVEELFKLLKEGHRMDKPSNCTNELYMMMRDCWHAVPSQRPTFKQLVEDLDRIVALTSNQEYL
For series [6], the target named is CYP2D6 (Homo sapiens, UniProt P10635). Nature of the series: Cytochrome P450 inhibition in human liver microsomes.
CYP2D6, sequence (P10635 whole entry): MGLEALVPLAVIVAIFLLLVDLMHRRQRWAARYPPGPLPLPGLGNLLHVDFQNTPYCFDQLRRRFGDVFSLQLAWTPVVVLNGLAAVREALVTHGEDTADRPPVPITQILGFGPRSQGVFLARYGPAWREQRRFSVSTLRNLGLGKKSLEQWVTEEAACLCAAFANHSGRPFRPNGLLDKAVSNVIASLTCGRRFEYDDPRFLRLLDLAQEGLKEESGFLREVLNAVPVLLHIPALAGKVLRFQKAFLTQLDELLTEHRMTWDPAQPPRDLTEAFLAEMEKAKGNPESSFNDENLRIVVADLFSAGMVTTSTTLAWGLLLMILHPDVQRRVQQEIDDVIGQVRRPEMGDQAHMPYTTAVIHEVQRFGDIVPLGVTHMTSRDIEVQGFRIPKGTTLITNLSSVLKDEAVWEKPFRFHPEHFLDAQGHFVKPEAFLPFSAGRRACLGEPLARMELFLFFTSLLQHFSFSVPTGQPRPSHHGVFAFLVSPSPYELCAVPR
Method: as §3, §4, §5, §6, §7, §8, §9, §10
Series [7] can be described thus: Rat liver cells metabolic stability. The note with it: rat liver cells 0.5 × 10^6 cells/mL. In kind it is in vitro ADME. As for the experimental part: Test compound and control drug verapamil powder were prepared into […] stock solution using DMSO, and they were diluted with 50% acetonitrile/50% water to 100 µM working solution before use.
• 1) 49.5 mL Williams E Medium and 0.5 mL glutaMAX were mixed as incubation medium. The liver cell resuscitation solution and incubation solution were preheated in a 37 °C water bath for at least 15 min before use. • 2) A tube of liver cells stored at ultra-low temperature was taken and ensured that they remain in a low-temperature frozen state before resuscitation. The liver cells were placed quickly in a 37 °C water bath and shaken gently until all ice crystals were dispersed. • 3) The contents of the liver cells tubes were poured into a centrifuge tube containing 50 mL of resuscitation medium, and they were centrifuged at 100 g for 10 min. After centrifugation, the resuscitation medium was aspirated, and sufficient incubation medium was added to obtain a cell suspension with a cell density of approximately 1.0 × 10^6 cells/mL. • 4) AO/PI staining was used to count liver cells and determine viable cell density, the survival rate of liver cells must be greater than 75%. The liver cell suspension was diluted with incubation medium to a viable cell density of 0.5 × 10^6 cells/mL.
• 1) 198 µL live cell suspension was transferred to a 96 well deep well plate, and the deep well plate was placed on a vortex and preheat in the incubator for 10 min. • 2) 2 µL 100 µM test compound or positive control compound was added to each well for reaction initiation, and the deep well plate was placed back on the incubator vortex. • 3) The incubation plate was placed into the incubator for incubation. 25 µL suspension was taken at 0.5, 15, 30, 60, 90, and 120 min, and 6-fold (150 µL) acetonitrile containing internal standard quencher (100 nM alprazolam, 200 nM caffeine, and 100 nM toluenesulfonylbutamide) was added to a new 96 well plate to terminate the reaction. The plate was vortexed for 5 min and centrifuged at 3220 rpm and 4 °C for 45 min to precipitate the protein. 100 µL of supernatant was transferred to the sample plate, and 100 µL pure water was added and mixed well for UPLC-MS/MS analysis. All incubation systems were conducted in a dual parallel manner.
All data was calculated using Microsoft Excel software. Peak area was detected by extracting ion chromatogram. In vitro half-life (T1/2) and in vitro clearance rate (in µL/min/10^6 cells) of the parent drug were detected by linearly fitting of the natural logarithm of the […] percentage of the parent drug versus time. Table 6 Results of rat liver cell stability test

Series [8] concerns A204 cells. Nature of the series: Proliferation inhibition, CCK-8 colorimetric method. In kind it is cell-based. The note with it: 72 h. As for the experimental part: (§1) CCK-8 (Bimake/B34304) colorimetric method was used to detect the in vitro proliferation inhibitory effect of compounds on suspended or adherent cells in this experiment. The specific experimental steps were as follows: • 1) Cell plating: SNU16 and A204 tumor cells (cells from Shanghai Institute of Organic Chemistry, Chinese Academy of Sciences) in the logarithmic growth phase were digested and centrifuged for trypan blue counting, and the cells were seeded into a transparent 96 well plate at a density of 4000 cells/100 µ 1/well. […] The test compound and control compound stock solution were diluted with the corresponding culture medium required for cell culture (with or without solvent DMSO) to obtain a series of working solutions, with concentrations of twice the final concentration. The solvent DMSO contents in each concentration group were consistent with that of the solvent control group. The final concentration of A204 cells started at 10 µM and was diluted twice.
(§2) Calculation of cell survival rate: Cell survival rate (%)=[(As-Ac)/(Ab-Ac)] × 100%] (As: experimental well; Ab: Solvent control well; Ac: Blank well).
(Tetrazolium assays rely on reduction of a dye to a coloured formazan, in cell work by metabolically active cells.)

For series [9], the system named is SNU16 cells. Described as above. Type of series: cell-based. As for the experimental part: as §1, §2
A short description of series [10]: Human liver microsomes stability test. As to conditions: human liver microsomes 0.5 mg/mL, compound 1.0 µM. Type of series: in vitro ADME. As for the experimental part: Human liver microsomes stability test was performed by co-incubating compounds with human liver microsomes in vitro. Firstly, a 10 mM stock solution of the test compound in DMSO solvent was prepared, and then the compound was diluted with methanol to a 0.15 mM working solution. A certain amount PBS, 12mM MgCl2, human liver microsomes (Corning), and compound working solution were mixed to achieve a compound concentration of 1.0 µM, a human liver microsome concentration of 0.5 mg/mL, and the MgCl2 concentration of 3 mM in the reaction system. A deep well plate was taken, 270 µL microsomal buffer mixture solution was added to each well, and then 30 µL preheated 10 mM NADPH solution was added to initiate the reaction, and it was incubated at 37 °C. At 0, 5, 15, 30, and 60 min of incubation, 200 µL methanol: acetonitrile = 1: 1 containing an internal standard was added to the corresponding well to terminate the reaction. After the reaction was terminated at the last 60 min, the deep well plate was subjected to vortex vibration for 5 min (600 rpm/min), and then centrifugated for 10 min. After centrifugation, the supernatant was taken, and purified water was added at a 1:1 ratio for LC-MS/MS detection, and the peak area ratio of the compound to the internal standard at each time point was obtained, and the peak area ratio of the compound at 5, 15, 30, and 60 min was compared with the peak area ratio at 0 minute to calculate the remaining percentage of the compound at each time point, and T1/2 was calculated using Graphpad 7 software. Table 2 Results of human liver microsomes stability test

CYP3A4, sequence (P08684 whole entry): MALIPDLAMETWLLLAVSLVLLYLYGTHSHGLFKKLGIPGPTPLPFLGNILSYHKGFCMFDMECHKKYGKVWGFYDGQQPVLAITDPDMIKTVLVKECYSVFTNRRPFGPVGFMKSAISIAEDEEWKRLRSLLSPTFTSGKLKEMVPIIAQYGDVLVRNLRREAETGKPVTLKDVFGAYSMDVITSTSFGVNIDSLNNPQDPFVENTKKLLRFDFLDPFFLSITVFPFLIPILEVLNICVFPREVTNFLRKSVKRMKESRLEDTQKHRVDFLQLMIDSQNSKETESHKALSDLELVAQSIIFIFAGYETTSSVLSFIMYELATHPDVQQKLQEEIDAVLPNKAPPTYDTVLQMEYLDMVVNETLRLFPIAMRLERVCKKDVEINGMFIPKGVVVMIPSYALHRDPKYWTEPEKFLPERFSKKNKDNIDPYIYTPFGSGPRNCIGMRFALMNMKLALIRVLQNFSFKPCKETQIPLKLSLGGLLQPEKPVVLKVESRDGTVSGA
Ba/F3-TEL-FGFR2, sequence (P21802 481-770 limits assumed, one chain of several): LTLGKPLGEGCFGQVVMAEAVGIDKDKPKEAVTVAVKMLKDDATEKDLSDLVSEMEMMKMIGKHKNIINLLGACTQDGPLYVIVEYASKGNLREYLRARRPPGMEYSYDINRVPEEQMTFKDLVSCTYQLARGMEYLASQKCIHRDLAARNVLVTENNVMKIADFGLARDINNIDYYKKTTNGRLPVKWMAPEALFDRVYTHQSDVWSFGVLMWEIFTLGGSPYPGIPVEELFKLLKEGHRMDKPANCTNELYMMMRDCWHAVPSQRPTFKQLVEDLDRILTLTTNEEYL

In general, AUC(0-t) refers to exposure summed from dosing to a finite time, without extrapolation to infinity. A lower AUC(0-t) goes with less exposure. The Cmax is the highest concentration seen after dosing. The Tmax is the time from dosing to the highest level. In the case of `C=C(C)C(=O)Nc1ccc(-c2c(-c3ccc(N=S4(=O)CCCC4)c(F)c3)c3c(N)ncnc3n2C)cc1` [Compound 33, N-(4-(4-amino-5-(3-fluoro-4-((1-oxotetrahydro-1 λ^6-thiophene-1-ylidene)amino)phenyl) -7-methyl-7H-pyrrolo [2,3-d]pyrimidin-6-yl)phenyl) methacrylamide], the IC50 in series [1] was 11.2 nM; in series [2], 1290 nM; in series [4], 19200 nM; in [5], 2310 nM; in series [6] it was 9520 nM. Besides, the AUC(0-t) in series [3] (male, SD) stood at 778 ng·h/mL. The compound also yielded a Cmax in [3] (male, SD) of 306 ng/mL. Further, the Tmax in series [3] (male, SD) amounted to 0.42 h. In addition, the half-life in [3] (male, SD) was 1.32 h.
Regarding `C=C(C)C(=O)Nc1ccc(-c2c(-c3ccc(N=S(=O)(N(C)C)C(F)(F)F)c(F)c3)c3c(N)ncnc3n2C)cc1` (centres unmarked) [Compound 48], in series [1], the IC50 came to 0.9 nM. For the same compound, the IC50 in series [2] came to 577 nM. In series [3], the AUC(0-t) amounted to 883 ng·h/mL, the peak level (Cmax) was 212 ng/mL, the Tmax was 0.83 h and the half-life is 3.44 h. The IC50 in series [5] amounted to 625 nM.
For the compound `C=C(C)C(=O)Nc1ccc(-c2c(-c3ccc(N=S4(=O)CCCC4)c(F)c3)c3c(N)ncnc3n2C)c(F)c1` [Compound 23, N-(4-(4-amino-5-(3-fluoro-4-((1-oxotetrahydro-1 λ^6-thiophene-1-ylidene)amino)phenyl) -7-methyl-7H-pyrrolo [2,3-d]pyrimidin-6-yl) -3-fluorophenyl) methacrylamide], the “Remaining percentage of compound after 60 min of incubation (%)” value in series [7] (60 min) is listed as 24.45%. Also, the hepatocyte CLint at 1 µM in series [7] (rat liver cells (cryopreserved hepatocytes in suspension), read-out: in vitro CLint (µL/min/10^6 cells)) turned out to be 48.4 µL/min/1e6 cells. Besides, the half-life at 1 µM in [7] (rat liver cells (cryopreserved hepatocytes in suspension), read-out: in vitro t1/2) came to 0.477 h. The IC50 in series [1] turned out to be 0.7 nM; in [8] (Homo sapiens) it was 618 nM; in series [9] (Homo sapiens, SNU-16, 72 h), 2.4 nM; in series [5], 568 nM.
As for “N-(4-(4-amino-7-methyl-5-(4-(1-oxotetrahydro-2H-1λ^6-thiopyran-1- imino) phenyl) -7H-pyrrolo [2,3-d] pyrimidin-6-yl) -3-fluorophenyl) methacrylamide [Compound 1]”, the IC50 in series [1] is 2.3 nM; in [2] it was 869 nM; in series [8] it was 1310 nM; in [9] (72 h), 5.57 nM; in [5], 656 nM.
Broadly, the CLint scaled is the capacity of the preparation to metabolise the compound, expressed as a volume cleared per time. Low readings indicate slow turnover, high ones rapid turnover. Take `C=C(C)C(=O)Nc1ccc(-c2c(-c3ccc(N=S4(=O)CCCCC4)cc3)c3c(N)ncnc3n2C)cc1` [Compound 4, N-(4-(4-amino-7-methyl-5-(4-(1-oxotetrahydro-2H-1λ^6-thiopyran-1-imino)phenyl) -7H-pyrrolo [2,3-d]pyrimidin-6-yl)phenyl) methacrylamide]: the IC50 was found to be 9.9 nM in series [1], 3360 nM in series [2] and 2370 nM in [5]. In [10], this compound returned a CLint scaled at 1 µM of 14.6 mL/min/kg. The compound also had a half-life at 1 µM in [10] of 1.43 h. Moreover, the “Remaining percentage of compound after 60 min of incubation (%)” value in series [10] (60 min) amounted to 61.6%.
For `C=C(C)C(=O)Nc1ccc(-c2c(-c3ccc(N=S4(=O)CCC4)c(F)c3)c3c(N)ncnc3n2C)cc1` [Compound 56], the IC50 amounted to 12.6 nM in series [1], 13200 nM in [4] and 5540 nM in series [6].
The corresponding values for `C=C(C)C(=O)Nc1ccc(-c2c(-c3ccc(N=S(=O)(CC)CC)c(F)c3)c3c(N)ncnc3n2C)cc1` [Compound 9, N-(4-(4-amino-5-(4-(diethyl (oxo) 1 λ^6-sulfanylidene) -3-fluorophenyl) -7-methyl 7H-pyrrolo [2,3-d]pyrimidin-6-yl) - phenyl) methacrylamide] are 14.9 nM, 13500 nM and 24600 nM.
In the case of `C=C(C)C(=O)Nc1ccc(-c2c(-c3ccc(N=S4(=O)CCCC4)c(F)c3)c3c(N)ncnc3n2C)c(C#N)c1` [Compound 26, N-(4-(4-amino-5-(3-fluoro-4-((1-oxotetrahydro-1 λ^6-thiophene-1-ylidene)amino)phenyl) -7-methyl-7H-pyrrolo [2,3-d]pyrimidin-6-yl) -3-cyanophenyl) methacrylamide], the IC50 worked out at 4.5 nM in [1]; 110 nM in series [2]; 285 nM in [8] (Homo sapiens); 3.36 nM in series [9] (Homo sapiens, SNU-16, 72 h).
